In patent publication USRE46630E1, “Substituted 4-pyridones and their use as inhibitors of neutrophil elastase activity” (Boehringer Ingelheim International GmbH, priority 2012, dated 2017) one finds IC50 data, which are given here for 43 compounds.

A value given as a limit tells only on which side of the number the result lay.

The target in the test is T1, Human neutrophil elastase (Homo sapiens, UniProt P08246).
T1 construct: purchased Calbiochem 324681
T1 sequence (P08246 30-267): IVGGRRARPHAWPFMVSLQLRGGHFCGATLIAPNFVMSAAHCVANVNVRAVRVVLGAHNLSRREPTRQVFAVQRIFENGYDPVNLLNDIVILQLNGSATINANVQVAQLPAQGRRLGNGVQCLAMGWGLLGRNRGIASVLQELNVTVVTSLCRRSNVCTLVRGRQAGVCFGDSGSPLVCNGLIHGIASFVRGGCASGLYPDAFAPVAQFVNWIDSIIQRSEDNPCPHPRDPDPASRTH
Briefly: Human Neutrophil Elastase Assay. Format: biochemical. The note with it: Neutrophil Elastase assay; substrate MeOSuc-Ala-Ala-Pro-Val-AMC 250 μM; 15 min preincubation, 60 min incubation at room temperature; pH 7.5. In short, it runs like this: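 Run in 100 mM Tris, 500 mM NaCl, pH 7.5 with 0.01% BSA, with compounds prediluted in DMSO then buffer (5% DMSO final). Fluorescence was read at 380 nm excitation/460 nm emission after enzyme inactivation. Values were normalised to inactivated-enzyme (0%) and uninhibited-enzyme (100%) controls.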

Usually IC50 stands for the concentration needed to halve the response being measured. The low end stands for higher potency, the high end for lower potency. In the case of `Cc1c(-c2cccc(C(F)(F)F)c2)c(=O)c(C(=O)NCc2ccc(S(C)(=O)=O)cn2)cn1Cc1ccncc1` [Example 4.3], 58 nM corresponded to half-maximal inhibition (IC50).
Compound `Cc1c(-c2cccc(C(F)(F)F)c2)c(=O)c(C(=O)NCc2ccc(S(C)(=O)=O)cn2)cn1Cc1cccc(C#N)c1` [Example 4.4] had an IC50 of 63.8 nM.
In the case of `Cc1c(-c2cccc(C(F)(F)F)c2)c(=O)c(C(=O)NCc2ccc(S(C)(=O)=O)cn2)cn1Cc1ccc(C#N)c(F)c1` [Example 4.5], the IC50 was determined as 1 nM.
Consider `COc1cc(C#N)ccc1Cn1cc(C(=O)NCc2ccc(S(C)(=O)=O)cn2)c(=O)c(-c2cccc(C(F)(F)F)c2)c1C` [Example 4.7], for which the IC50 is less than 1 nM.
As to `Cc1c(-c2cccc(C(F)(F)F)c2)c(=O)c(C(=O)NCc2ccc(S(C)(=O)=O)cn2)cn1Cc1ccc(C#N)nc1` [Example 4.8], it took 1.4 nM to reach half-maximal inhibition (IC50).
With `Cc1c(-c2cccc(C(F)(F)F)c2)c(=O)c(C(=O)NCc2ccc(S(C)(=O)=O)cn2)cn1Cc1ccc(C#N)cc1F` [Example 4.9] the figure was less than 1 nM; with `Cc1c(-c2cccc(C(F)(F)F)c2)c(=O)c(C(=O)NCc2ccc(S(C)(=O)=O)cn2)cn1C(C)c1ccc(C#N)cc1` (stereo not shown) [Example 4.10], less than 1 nM.
With `Cc1c(-c2ccnc(C(F)(F)F)c2)c(=O)c(C(=O)NCc2ccc(S(C)(=O)=O)cc2)cn1Cc1ccc(C#N)cn1` [Example 5.1] the figure was 2.8 nM.
`Cc1c(-c2ccnc(C(F)(F)F)c2)c(=O)c(C(=O)NCc2ccc(S(C)(=O)=O)cc2)cn1Cc1ccc(C#N)c(F)c1` [Example 5.2] gave an IC50 of 1.2 nM.
For `Cc1c(-c2ccnc(C(F)(F)F)c2)c(=O)c(C(=O)NCc2ccc(S(C)(=O)=O)cc2)cn1Cc1ccc(C#N)cc1F` [Example 5.3] the value was 1.4 nM; for `Cc1c(-c2ccccc2)c(=O)c(C(=O)NCc2ccc(S(C)(=O)=O)cc2)cn1Cc1ccc(C#N)cc1` [Example 6.1, 1-(4-Cyano-benzyl)-6-methyl-4-oxo-5-phenyl-1,4-dihydro-pyridine-3-carboxylic acid 4-methanesulfonyl-benzylamide], 44.5 nM.
With `Cc1cccc(-c2c(C)n(Cc3ccc(C#N)cc3)cc(C(=O)NCc3ccc(S(C)(=O)=O)cc3)c2=O)c1` [Example 6.2] the figure was 1.5 nM; with `Cc1cc(-c2c(C)n(Cc3ccc(C#N)cc3)cc(C(=O)NCc3ccc(S(C)(=O)=O)cc3)c2=O)ccn1` [Example 6.3], 9.1 nM; with `Cc1cncc(-c2c(C)n(Cc3ccc(C#N)cc3)cc(C(=O)NCc3ccc(S(C)(=O)=O)cc3)c2=O)c1` [Example 6.4], 19.3 nM.
In turn, `Cc1c(-c2cccc(F)c2)c(=O)c(C(=O)NCc2ccc(S(C)(=O)=O)cc2)cn1Cc1ccc(C#N)cc1` [Example 6.5] gave an IC50 of 9.6 nM.
For `COc1cc(-c2c(C)n(Cc3ccc(C#N)cc3)cc(C(=O)NCc3ccc(S(C)(=O)=O)cc3)c2=O)ccn1` [Example 6.6] the value was 38.6 nM.
As for `COc1cncc(-c2c(C)n(Cc3ccc(C#N)cc3)cc(C(=O)NCc3ccc(S(C)(=O)=O)cc3)c2=O)c1` [Example 6.7], the half-maximal inhibitory concentration (IC50) came out at 75.3 nM.
For `Cc1c(-c2cccc(Cl)c2)c(=O)c(C(=O)NCc2ccc(S(C)(=O)=O)cc2)cn1Cc1ccc(C#N)cc1` [Example 6.8] the value was less than 1 nM.
Regarding `Cc1c(-c2cncc(Cl)c2)c(=O)c(C(=O)NCc2ccc(S(C)(=O)=O)cc2)cn1Cc1ccc(C#N)cc1` [Example 6.9], the IC50 worked out at 3.8 nM.
For `Cc1c(-c2cccc(C(F)F)c2)c(=O)c(C(=O)NCc2ccc(S(C)(=O)=O)cc2)cn1Cc1ccc(C#N)cc1` [Example 6.10] the value was less than 1 nM.
In turn, `Cc1c(-c2ccnc(C(F)(F)F)c2)c(=O)c(C(=O)NCc2ccc(S(C)(=O)=O)cc2)cn1Cc1ccc(C#N)cc1` [Example 6.11] registered an IC50 of less than 1 nM.
With `Cc1c(-c2cc(C(F)(F)F)ccn2)c(=O)c(C(=O)NCc2ccc(S(C)(=O)=O)cc2)cn1Cc1ccc(C#N)cc1` [Example 6.12] the figure was 3.8 nM.
The compound `Cc1c(-c2cncc(C(F)(F)F)c2)c(=O)c(C(=O)NCc2ccc(S(C)(=O)=O)cc2)cn1Cc1ccc(C#N)cc1` [Example 6.13] registered an IC50 of 2.5 nM.
With `Cc1c(-c2cccc(C(F)(F)F)c2)c(=O)c(C(=O)NCCCN(C)C)cn1C(C)c1ccc(C#N)cc1` (stereo not shown) [Example 7.1] the figure was 4.1 nM.
For `Cc1noc(CNC(=O)c2cn(C(C)c3ccc(C#N)cc3)c(C)c(-c3cccc(C(F)(F)F)c3)c2=O)n1` (stereo not shown) [Example 7.2] the value was 2.5 nM; for `Cc1c(-c2cccc(C(F)(F)F)c2)c(=O)c(C(=O)NCCCS(C)(=O)=O)cn1C(C)c1ccc(C#N)cc1` (stereo not shown) [Example 7.3], 1.3 nM.
Regarding `Cc1c(-c2cccc(C(F)(F)F)c2)c(=O)c(C(=O)NCCCO)cn1C(C)c1ccc(C#N)cc1` (stereo not shown) [Example 7.4], the IC50 is 1.8 nM.
For `Cc1nnc(CNC(=O)c2cn(C(C)c3ccc(C#N)cc3)c(C)c(-c3cccc(C(F)(F)F)c3)c2=O)o1` (stereo not shown) [Example 7.5] the value was 1.4 nM.
With `Cc1c(-c2cccc(C(F)(F)F)c2)c(=O)c(C(=O)NCCS(C)(=O)=O)cn1C(C)c1ccc(C#N)cc1` (stereo not shown) [Example 7.6] the figure was 1.2 nM; with `Cc1c(-c2cccc(C(F)(F)F)c2)c(=O)c(C(=O)NC2CNC(=O)C2)cn1C(C)c1ccc(C#N)cc1` (stereo not shown) [Example 7.7], 2.4 nM; with `Cc1c(-c2cccc(C(F)(F)F)c2)c(=O)c(C(=O)NCC[S+](C)[O-])cn1C(C)c1ccc(C#N)cc1` (stereo not shown) [Example 7.8], 1.3 nM.
With `Cc1c(-c2cccc(C(F)(F)F)c2)c(=O)c(C(=O)NCCO)cn1C(C)c1ccc(C#N)cc1` (stereo not shown) [Example 7.9] the figure was 2.3 nM; with `Cc1c(-c2cccc(C(F)(F)F)c2)c(=O)c(C(=O)NC2CCN(C)C2=O)cn1C(C)c1ccc(C#N)cc1` (stereo not shown) [Example 7.10], 2 nM; with `Cc1c(-c2cccc(C(F)(F)F)c2)c(=O)c(C(=O)NC2CCNC2=O)cn1C(C)c1ccc(C#N)cc1` (stereo not shown) [Example 7.12], 1.5 nM.
`Cc1c(-c2cccc(C(F)(F)F)c2)c(=O)c(C(=O)NCC(C)O)cn1C(C)c1ccc(C#N)cc1` (stereo not shown) [Example 7.13]: the IC50 was determined as 4 nM.
On to `Cc1c(-c2cccc(C(F)(F)F)c2)c(=O)c(C(=O)NCC(C)O)cn1C(C)c1ccc(C#N)cc1` (stereo not shown) [Example 7.14], for which inhibition was half-maximal at 4.7 nM (IC50).
With `Cc1c(-c2cccc(C(F)(F)F)c2)c(=O)c(C(=O)NCC(C)(C)O)cn1C(C)c1ccc(C#N)cc1` (stereo not shown) [Example 7.15] the figure was 10.3 nM; with `Cc1c(-c2cccc(C(F)(F)F)c2)c(=O)c(C(=O)NCC2(O)CC2)cn1C(C)c1ccc(C#N)cc1` (stereo not shown) [Example 7.16], 17.9 nM.
With `Cc1c(-c2cccc(C(F)(F)F)c2)c(=O)c(C(N)=O)cn1C(C)c1ccc(C#N)cc1` (stereo not shown) [Example 7.17] the figure was 18.5 nM; with `Cc1c(-c2cccc(C(F)(F)F)c2)c(=O)c(C(=O)NCC#N)cn1C(C)c1ccc(C#N)cc1` (stereo not shown) [Example 7.18], less than 1 nM; with `Cc1c(-c2cccc(C(F)(F)F)c2)c(=O)c(C(=O)NC2COC2)cn1C(C)c1ccc(C#N)cc1` (stereo not shown) [Example 7.19], 4.1 nM.
Compound `Cc1c(-c2cccc(C(F)(F)F)c2)c(=O)c(C(=O)NCC(F)F)cn1C(C)c1ccc(C#N)cc1` (stereo not shown) [Example 7.20] showed an IC50 of 3.6 nM.
For `Cc1c(-c2cccc(C(F)F)c2)c(=O)c(C(=O)NCCCN(C)C)cn1C(C)c1ccc(C#N)cc1` (stereo not shown) [Example 8.1], the IC50 was 4.1 nM.
